This note sets out measurements from PMC4774911, “Biochemical Screening of Five Protein Kinases from Plasmodium falciparum against 14,000 Cell-Active Compounds” (PLoS ONE, 2016).

Among the targets are CDK9 (Homo sapiens, UniProt P50750); CSNK1E (Homo sapiens, UniProt P49674); PRKCD (Homo sapiens, UniProt Q05655); PTK2 (Homo sapiens, UniProt Q05397); WEE1 (Homo sapiens, UniProt P30291); ZAK (Homo sapiens, UniProt Q9NYL2).
Assay in all cases: biochemical
Holding throughout (set-up): endogenous in cells; host or cells: K562 cell extract; species or system K562 (extract); replicate k of n = 2 (each experiment ID is one independent experiment; two experiment IDs per compound)
Common to all, as to conditions: read-out: KDapp

The target in another experiment is T1, EPHB4 (Homo sapiens, UniProt P54760).
T1 sequence (P54760 1-987): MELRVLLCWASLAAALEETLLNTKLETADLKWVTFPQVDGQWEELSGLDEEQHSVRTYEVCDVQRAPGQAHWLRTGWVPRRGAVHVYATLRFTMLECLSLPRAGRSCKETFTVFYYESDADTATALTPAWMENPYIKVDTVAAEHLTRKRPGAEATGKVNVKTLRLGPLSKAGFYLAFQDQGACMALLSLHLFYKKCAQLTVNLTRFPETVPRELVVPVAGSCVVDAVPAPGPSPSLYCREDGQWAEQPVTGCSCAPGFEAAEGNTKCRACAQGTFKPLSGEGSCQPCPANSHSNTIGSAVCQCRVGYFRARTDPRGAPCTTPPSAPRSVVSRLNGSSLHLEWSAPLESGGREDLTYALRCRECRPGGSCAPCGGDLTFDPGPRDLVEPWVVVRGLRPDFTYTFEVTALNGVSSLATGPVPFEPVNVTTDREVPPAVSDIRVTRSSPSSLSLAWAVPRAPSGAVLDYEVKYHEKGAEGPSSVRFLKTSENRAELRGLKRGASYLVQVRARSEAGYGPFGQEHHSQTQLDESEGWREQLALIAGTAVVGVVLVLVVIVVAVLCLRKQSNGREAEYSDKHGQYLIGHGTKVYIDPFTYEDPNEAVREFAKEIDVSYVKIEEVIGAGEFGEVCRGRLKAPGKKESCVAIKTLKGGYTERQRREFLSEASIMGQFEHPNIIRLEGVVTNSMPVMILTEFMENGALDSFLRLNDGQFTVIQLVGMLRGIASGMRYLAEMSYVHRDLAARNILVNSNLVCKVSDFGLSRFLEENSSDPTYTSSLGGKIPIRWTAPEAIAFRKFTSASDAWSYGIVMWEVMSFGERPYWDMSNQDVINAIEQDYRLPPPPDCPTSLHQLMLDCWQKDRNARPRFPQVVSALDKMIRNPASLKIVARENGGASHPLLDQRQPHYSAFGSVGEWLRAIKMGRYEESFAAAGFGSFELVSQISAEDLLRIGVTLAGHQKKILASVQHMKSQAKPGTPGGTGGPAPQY

The target in a further experiment is T2, PIP4K2B (Homo sapiens, UniProt P78356).
T2 sequence (P78356 1-416): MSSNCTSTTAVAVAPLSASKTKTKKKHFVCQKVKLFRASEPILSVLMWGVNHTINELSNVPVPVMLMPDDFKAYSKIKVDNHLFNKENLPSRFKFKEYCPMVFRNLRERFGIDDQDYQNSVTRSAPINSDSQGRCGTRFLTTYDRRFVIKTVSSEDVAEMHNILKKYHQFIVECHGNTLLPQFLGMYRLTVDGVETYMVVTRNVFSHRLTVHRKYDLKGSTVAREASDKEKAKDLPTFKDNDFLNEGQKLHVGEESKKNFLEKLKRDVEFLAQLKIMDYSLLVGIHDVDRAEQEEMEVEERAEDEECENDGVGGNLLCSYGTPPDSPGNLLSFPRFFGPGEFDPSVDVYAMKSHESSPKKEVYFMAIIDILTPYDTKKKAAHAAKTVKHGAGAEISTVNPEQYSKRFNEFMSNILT

Where “and” joins values, the source holds several entries; their conditions need not be identical. Equal values may be shown once.

Chain of CSNK1E (P49674 whole entry): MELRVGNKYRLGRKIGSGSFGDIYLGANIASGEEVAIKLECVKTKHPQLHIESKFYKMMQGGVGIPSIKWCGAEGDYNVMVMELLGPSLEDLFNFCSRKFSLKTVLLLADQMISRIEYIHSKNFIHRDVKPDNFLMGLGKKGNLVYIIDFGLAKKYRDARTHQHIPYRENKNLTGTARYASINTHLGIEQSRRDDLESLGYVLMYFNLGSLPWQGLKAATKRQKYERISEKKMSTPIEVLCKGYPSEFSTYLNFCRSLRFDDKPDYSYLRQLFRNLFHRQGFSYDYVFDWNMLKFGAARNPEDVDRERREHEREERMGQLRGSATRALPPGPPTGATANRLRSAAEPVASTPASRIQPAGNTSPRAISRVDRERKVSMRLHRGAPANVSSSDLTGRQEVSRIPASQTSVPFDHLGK
Chain of WEE1 (P30291 whole entry): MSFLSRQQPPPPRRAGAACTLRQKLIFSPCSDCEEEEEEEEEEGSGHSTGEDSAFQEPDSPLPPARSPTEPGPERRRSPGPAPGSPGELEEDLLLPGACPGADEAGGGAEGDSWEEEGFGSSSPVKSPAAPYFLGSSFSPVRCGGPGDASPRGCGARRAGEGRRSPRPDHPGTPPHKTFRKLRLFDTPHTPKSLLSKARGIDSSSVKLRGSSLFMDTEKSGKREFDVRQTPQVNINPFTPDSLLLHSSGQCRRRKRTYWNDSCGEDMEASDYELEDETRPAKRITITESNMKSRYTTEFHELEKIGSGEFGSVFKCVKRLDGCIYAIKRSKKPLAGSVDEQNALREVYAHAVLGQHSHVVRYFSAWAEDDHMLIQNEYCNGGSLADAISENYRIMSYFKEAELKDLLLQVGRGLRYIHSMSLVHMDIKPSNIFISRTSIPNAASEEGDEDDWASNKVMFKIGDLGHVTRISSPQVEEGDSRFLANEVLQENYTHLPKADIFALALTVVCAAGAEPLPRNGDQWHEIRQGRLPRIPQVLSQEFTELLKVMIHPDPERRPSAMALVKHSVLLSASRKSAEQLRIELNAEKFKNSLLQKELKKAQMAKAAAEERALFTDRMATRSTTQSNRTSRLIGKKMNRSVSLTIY
Chain of PTK2 (Q05397 whole entry): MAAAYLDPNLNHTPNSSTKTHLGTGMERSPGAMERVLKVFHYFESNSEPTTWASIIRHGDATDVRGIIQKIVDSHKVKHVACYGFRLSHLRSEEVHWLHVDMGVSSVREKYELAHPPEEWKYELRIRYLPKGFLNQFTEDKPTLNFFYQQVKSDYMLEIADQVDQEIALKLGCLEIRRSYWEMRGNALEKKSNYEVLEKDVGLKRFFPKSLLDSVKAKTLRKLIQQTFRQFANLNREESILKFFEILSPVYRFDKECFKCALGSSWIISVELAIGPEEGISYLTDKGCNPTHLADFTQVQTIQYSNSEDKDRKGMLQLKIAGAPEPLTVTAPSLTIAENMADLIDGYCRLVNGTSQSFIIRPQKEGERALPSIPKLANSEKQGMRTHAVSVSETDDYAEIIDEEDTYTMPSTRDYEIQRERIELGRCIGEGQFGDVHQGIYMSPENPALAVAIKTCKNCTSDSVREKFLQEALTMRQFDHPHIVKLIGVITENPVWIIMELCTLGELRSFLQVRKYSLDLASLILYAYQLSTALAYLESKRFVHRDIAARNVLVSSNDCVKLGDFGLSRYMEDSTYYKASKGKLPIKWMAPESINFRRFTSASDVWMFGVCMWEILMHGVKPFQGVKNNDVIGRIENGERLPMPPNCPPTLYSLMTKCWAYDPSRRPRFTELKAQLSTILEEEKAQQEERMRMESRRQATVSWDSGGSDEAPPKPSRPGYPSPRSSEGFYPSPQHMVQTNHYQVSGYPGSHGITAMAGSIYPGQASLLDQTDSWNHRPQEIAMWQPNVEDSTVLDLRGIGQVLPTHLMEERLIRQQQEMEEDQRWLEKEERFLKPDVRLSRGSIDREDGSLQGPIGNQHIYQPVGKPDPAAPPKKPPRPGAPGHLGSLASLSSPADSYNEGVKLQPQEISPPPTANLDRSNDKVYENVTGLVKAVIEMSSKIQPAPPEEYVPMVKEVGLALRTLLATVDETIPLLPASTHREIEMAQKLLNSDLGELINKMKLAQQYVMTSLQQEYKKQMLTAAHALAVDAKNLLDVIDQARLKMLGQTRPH
Chain of ZAK (Q9NYL2 whole entry): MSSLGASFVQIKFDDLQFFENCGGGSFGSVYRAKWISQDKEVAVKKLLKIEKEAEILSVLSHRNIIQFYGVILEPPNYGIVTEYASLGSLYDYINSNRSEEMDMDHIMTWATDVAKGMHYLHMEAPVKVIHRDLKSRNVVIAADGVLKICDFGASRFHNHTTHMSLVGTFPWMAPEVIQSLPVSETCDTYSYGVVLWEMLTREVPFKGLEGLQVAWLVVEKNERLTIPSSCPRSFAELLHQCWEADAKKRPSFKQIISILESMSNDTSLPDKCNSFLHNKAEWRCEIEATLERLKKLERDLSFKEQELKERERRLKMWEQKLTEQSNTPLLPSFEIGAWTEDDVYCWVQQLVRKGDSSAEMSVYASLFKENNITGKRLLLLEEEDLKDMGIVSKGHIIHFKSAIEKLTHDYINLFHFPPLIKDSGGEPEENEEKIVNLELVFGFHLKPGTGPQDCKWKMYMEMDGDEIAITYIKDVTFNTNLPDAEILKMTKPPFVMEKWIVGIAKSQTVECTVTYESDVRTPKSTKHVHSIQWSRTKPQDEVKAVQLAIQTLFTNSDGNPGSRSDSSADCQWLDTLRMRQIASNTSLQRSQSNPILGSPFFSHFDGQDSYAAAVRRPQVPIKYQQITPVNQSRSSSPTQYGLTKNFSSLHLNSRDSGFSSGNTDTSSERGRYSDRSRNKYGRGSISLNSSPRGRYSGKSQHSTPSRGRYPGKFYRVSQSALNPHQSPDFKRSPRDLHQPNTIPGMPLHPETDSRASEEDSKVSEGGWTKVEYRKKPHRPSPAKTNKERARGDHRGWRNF
Chain of CDK9 (P50750 whole entry): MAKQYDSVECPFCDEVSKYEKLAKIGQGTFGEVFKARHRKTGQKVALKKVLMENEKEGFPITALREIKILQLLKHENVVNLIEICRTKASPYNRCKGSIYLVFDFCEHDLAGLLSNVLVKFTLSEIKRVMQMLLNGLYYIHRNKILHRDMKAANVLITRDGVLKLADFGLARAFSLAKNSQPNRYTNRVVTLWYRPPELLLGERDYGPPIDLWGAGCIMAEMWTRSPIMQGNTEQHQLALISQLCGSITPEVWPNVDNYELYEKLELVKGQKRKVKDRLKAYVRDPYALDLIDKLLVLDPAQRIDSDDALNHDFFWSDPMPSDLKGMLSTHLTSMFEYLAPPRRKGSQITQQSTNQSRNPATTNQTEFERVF
Chain of PRKCD (Q05655 whole entry): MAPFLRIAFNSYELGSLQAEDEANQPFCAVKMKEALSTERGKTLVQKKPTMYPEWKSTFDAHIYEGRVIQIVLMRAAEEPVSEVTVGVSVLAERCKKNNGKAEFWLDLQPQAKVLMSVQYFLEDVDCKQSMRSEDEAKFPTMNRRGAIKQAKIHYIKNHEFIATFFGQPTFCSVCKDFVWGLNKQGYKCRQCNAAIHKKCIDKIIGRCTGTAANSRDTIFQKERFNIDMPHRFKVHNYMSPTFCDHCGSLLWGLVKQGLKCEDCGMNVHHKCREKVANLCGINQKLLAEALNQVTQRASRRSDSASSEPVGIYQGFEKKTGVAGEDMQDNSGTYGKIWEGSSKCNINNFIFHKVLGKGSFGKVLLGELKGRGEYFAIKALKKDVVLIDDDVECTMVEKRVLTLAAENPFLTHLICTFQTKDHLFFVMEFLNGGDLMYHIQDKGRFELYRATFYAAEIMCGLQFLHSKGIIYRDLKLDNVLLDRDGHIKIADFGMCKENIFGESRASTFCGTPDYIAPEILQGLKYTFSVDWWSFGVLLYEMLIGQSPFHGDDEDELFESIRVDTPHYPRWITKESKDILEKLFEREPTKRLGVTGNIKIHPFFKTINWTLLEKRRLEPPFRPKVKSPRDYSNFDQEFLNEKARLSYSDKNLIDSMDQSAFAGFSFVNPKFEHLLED

Consider `CN1CCN(c2ccc(Nc3ncc(C#N)c(Nc4ccccc4C(N)=O)n3)cc2)CC1.Cl` [TCMDC-134116], for which the Kd on CDK9 was 576 nM and 393 nM; at CSNK1E, 1100 nM and 2810 nM; at EPHB4, 2110 nM; at PIP4K2B, 1130 nM and 705 nM; at PRKCD it was 685 nM; on PTK2 it was 13.2 nM and 17.4 nM. In addition, the Kd was 17.3 nM and 16.9 nM on WEE1; 0.677 µM on ZAK.

Take `Cl.NCC1(c2nc(-c3ccc(Cl)c(O)c3)c(-c3ccncc3)[nH]2)CCCCC1` [TCMDC-141154]: the Kd on CSNK1E was 226 nM; on EPHB4 it was 2600 nM; at PRKCD, 806 nM; on ZAK, 6.13 µM and 3.63 µM.

Take `CN(C)CC(O)COc1ccc(Nc2ncc([N+](=O)[O-])c(Nc3ccccc3O)n2)cc1.O=C(O)C(F)(F)F` (stereo not shown) [TCMDC-141399]: the Kd was 2780 nM and 3820 nM at CDK9; 684 nM and 987 nM on PIP4K2B; 26.9 nM and 29 nM at PTK2; 209 nM on WEE1.
